Where two headings read alike, the source gives them in different places.

Holding throughout (type): cell-based
For one test, the system named is HSV-1. Nature of the test: Virus yield reduction assay, inhibition of HSV-1 viral replication in Vero cells. As to conditions: read-out: % Inhibition Against HSV-1 Viral Replication. The procedure:
(§1) Compounds of the formulas II and III of the present invention are evaluated in an assay to measure the inhibition of HSV-1 viral replication in the presence of drug over a 14-16 hour period. The assay is discussed in detail by Pritchard, M.N. et al. "A Microliter Virus Yield Reduction Assay for the Evaluation of Antiviral Compounds Against Human Cytomegalovirus and Herpes Simplex Virus", J. Virol. Meth., Vol. 28, pp 101-106 (1990). Briefly, 80% confluent monolayers of Vero cells in 24 well plates are infected with low multiplicities of HSV-1 (MOI = .001). After an absorption period of 1 hour at 37 °C, the monolayers are rinsed with culture media and aliquots of compounds diluted into tissue culture media are added for 14-16 hours at 37 °C in a CO2 atmosphere. The growth media is removed and 1 ml of fresh media is added to each well and plates are placed at -70 °C. After a 1-5 day storage period the plates are rapidly thawed, samples are collected on ice and titrated on fresh Vero cell monolayers. Viral plaques are stained with 0.1% crystal violet in 20% alcohol for 10 minutes and are counted. Data are calculated to reflect the percentage of inhibition at indicated concentration relative to infected, non-drug treated controls.

The test system of a further test is VZV. Nature of the test: Plaque reduction assay, VZV replication in HFF cells over five days. How it is done: Antiviral activity against VZV are evaluated in an assay to measure the reduction of viral replication in the number viral plaques formed over five days of incubation in the presence of compounds of the present invention. Aliquots of VZV are added for 90 minutes to 24 well plates having HFF cells at 80% confluence to yield approximately 25 plaques for media treated wells. The plates are flicked and dilutions of compounds in tissue culture media at 2 time strength are added (0.5 ml per well). Immediately following the addition of drug 0.5 ml of 1.0% agarose is added to the wells and the plates are gently tapped to aid mixing. This final concentration of agarose (0.5%) is insufficient to solidify at 37 °C and serves as a semi solid overlay medium. Plates are undisturbed for five days. On day 5 the plates are examined microscopically for toxicity and plaques are counted using low power microscopy.
On the technique in general: In a plaque reduction assay, fewer plaques than in the control indicate reduced infectivity or spread.

Another test relates to HSV-2. The test is described as follows: Virus yield reduction assay, inhibition of HSV-2 viral replication (substantially the same assay as for HSV-1). The procedure:
as §1
Compounds of the formulas II and III of the present invention are also evaluated in substantially the same assay as described above to measure the inhibition of HSV-2 viral replication.

Where [1] appears, read: Human alphaherpesvirus 1, Vero, 14 h.
The mark [2] stands for this setting: Human alphaherpesvirus 1, 14 h, 5 µm, Vero cells, MOI = .001, 14-16 hours.
[3] abbreviates: Human alphaherpesvirus 1, 14 h, 30 µm, Vero cells, MOI = .001, 14-16 hours.

Turning to `Cc1ccc(NC(=S)Nc2ccc(Cl)cc2)cc1NC(=S)Nc1ccc(Cl)cc1` [Example 1, N,N"-(4-methyl-1,3-phenylene)bis[N'-(4-chlorophenyl)thiourea]], in the test on HSV-1 (setting [1]), the inhibition at 5 µM was under 0% and the inhibition at 30 µM was in the range of 0 to 50%.
On to `COc1ccc(NC(=O)Nc2ccc([N+](=O)[O-])cc2)cc1NC(=O)Nc1ccc([N+](=O)[O-])cc1` [Example 2, N,N"-(4-methoxy-1,3-phenylene)bis[N'-(4-nitrophenyl)urea]], for which, in the test with HSV-1 (setting [2]), the inhibition at 5 µM is under 0%. Further, the inhibition at 30 µM with HSV-1 (setting [3]) was 50 to 90%.
`COc1ccc(NC(=O)Nc2ccc(Cl)cc2)cc1NC(=O)Nc1ccc(Cl)cc1` [Example 3, N,N"-(4-methoxy-1,3-phenylene)bis[N'-(4-chlorophenyl)urea]]: in the test with HSV-1 (setting [1]), the inhibition at 5 µM lay in the range of 0 to 50% and the inhibition at 30 µM lay in the range of 0 to 50%.
With `COc1ccc(NC(=O)Nc2ccc(C)cc2)cc1NC(=O)Nc1ccc(C)cc1` [Example 4, N,N"-(4-methoxy-1,3-phenylene)bis[N'-(p-tolyl)urea]], in the test with HSV-1 (setting [1]), the inhibition at 5 µM lay in the range of 0 to 50% and the inhibition at 30 µM was in the range of 0 to 50%.
For `CSC(=Nc1ccccc1)Nc1ccc(Oc2ccc(NC(=Nc3ccccc3)SC)cc2)cc1` [Example 5, dimethyl N,N"-(oxydi-4,1-phenylene)bis [N'-(phenyl) carbamimidothioate]], the inhibition at 5 µM in the test with HSV-1 (setting [2]) was under 0%. Also, in the test on HSV-1 (setting [3]), the inhibition at 30 µM fell in the range of 0 to 50%.
`COc1ccc(NC(=S)Nc2ccc(Cl)cc2)cc1NC(=S)Nc1ccc(Cl)cc1` [Example 6, N,N"-(4-methoxy-1,3-phenylene)bis[N'-(4-chlorophenyl)thiourea]]: in the test with HSV-1 (setting [1]), the inhibition at 5 µM is under 0% and the inhibition at 30 µM lay within 0 to 50%.
As for `COc1ccc(NC(=S)Nc2ccc([N+](=O)[O-])cc2)cc1NC(=S)Nc1ccc([N+](=O)[O-])cc1` [Example 7, N,N"-(4-methoxy-1,3-phenylene)bis[N'-(4-nitrophenyl)thiourea]], the inhibition at 5 µM with HSV-1 (setting [2]) was under 0%. Moreover, the inhibition at 30 µM in the test with HSV-1 (setting [3]) is 0 to 50%.
For `CSC(=Nc1ccc([N+](=O)[O-])cc1)Nc1ccc(Oc2ccc(NC(=Nc3ccc([N+](=O)[O-])cc3)SC)cc2)cc1` [Example 8, dimethyl N,N"-(oxydi-4,1-phenylene)bis[N'-(4-nitrophenyl)carbamimidothioate]], in that order: under 0% and 0 to 50%.
Turning to `COc1cccc(NS(=O)(=O)c2ccc(Oc3ccc(S(=O)(=O)Nc4cccc(OC)c4)cc3)cc2)c1` [Example 9, bis[N-(3-methoxyphenyl)aminosulfonyl](oxydi-4,1-phenylene)], in the test with HSV-1 (setting [1]), the inhibition at 5 µM fell in the range of 0 to 50% and the inhibition at 30 µM was over 90%.
The matching figures for `Cc1ccc(NS(=O)(=O)c2cccc(S(=O)(=O)Nc3ccc(C)cc3)c2)cc1` [Example 10, N,N"-(1,3-phenylene)bis[N-(p-tolyl)aminosulfonyl]]: 0 to 50% and 50 to 90%.
For `Cc1cccc(NS(=O)(=O)c2ccc(Oc3ccc(S(=O)(=O)Nc4cccc(C)c4)cc3)cc2)c1` [Example 11, bis[N-(3-methylphenyl)aminosulfonyl](oxydi-4,1-phenylene)], in the test with HSV-1 (setting [1]), the inhibition at 5 µM is under 0% and the inhibition at 30 µM fell in the range of 50 to 90%.
With `CSC(=NCCc1ccccc1)Nc1ccc(Oc2ccc(NC(=NCCc3ccccc3)SC)cc2)cc1` [Example 12, dimethyl N,N"-(oxydi-4,1-phenylene)bis[N'-(2-phenylethyl)carbamimidothioate]], the inhibition at 5 µM with HSV-1 (setting [2]) fell in the range of 50 to 90%. Also, in the test with HSV-1 (setting [3]), the inhibition at 30 µM is over 90%. For the same compound, the “% Inhibition Against VZV Viral Replication” value in the test with VZV (2µm) is reported as “+++ (>90% inhibition at the indicated concentration)”. Also, the “% Inhibition Against HSV-2 Viral Replication” value with HSV-2 (1µm) is listed as “+ (<50% inhibition at the indicated concentration)”; in the test on HSV-2 (10 µm), “++ (> 50% inhibition at the indicated concentration)”.
Take `N=C(Nc1ccc(Cc2ccc(NC(=N)c3ccccc3)cc2)cc1)c1ccccc1` [Example 13, N,N"-(methylenedi-4,1-phenylene)bis [benzenecarboximidamide]]: in the test with HSV-1 (setting [1]), the inhibition at 5 µM lay within 0 to 50% and the inhibition at 30 µM was over 90%. Moreover, the “% Inhibition Against VZV Viral Replication” value in the test on VZV (2µm) was “+ (<50% inhibition at the indicated concentration)”. The “% Inhibition Against HSV-2 Viral Replication” value with HSV-2 (1µm) is “+ (<50% inhibition at the indicated concentration)”. Moreover, the “% Inhibition Against HSV-2 Viral Replication” value with HSV-2 (10 µm) was “+++ (>90% inhibition at the indicated concentration)”.
On to `O=[N+]([O-])c1ccc(NC(=S)Nc2ccc(Oc3ccc(NC(=S)Nc4ccc([N+](=O)[O-])cc4)cc3)cc2)cc1` [Example 14, N,N"-(oxydi-4,1-phenylene)bis[N'-(4-nitrophenyl)thiourea]], for which, in the test with HSV-1 (setting [2]), the inhibition at 5 µM was under 0%. In addition, the inhibition at 30 µM in the test with HSV-1 (setting [3]) lay within 0 to 50%.
On to `S=C(NCCc1ccccc1)Nc1ccc(Oc2ccc(NC(=S)NCCc3ccccc3)cc2)cc1` [Example 15, N,N''-(oxydi-4,1-phenylene)bis[N'-(2-phenylethyl)thiourea]], for which, in the test with HSV-1 (setting [1]), the inhibition at 5 µM fell in the range of 0 to 50% and the inhibition at 30 µM fell in the range of 0 to 50%. Besides, in the test with VZV (2µm), the “% Inhibition Against VZV Viral Replication” value was “+++ (>90% inhibition at the indicated concentration)”. In addition, the “% Inhibition Against HSV-2 Viral Replication” value in the test on HSV-2 (1µm) is given as “+ (<50% inhibition at the indicated concentration)”. Moreover, in the test on HSV-2 (10 µm), the “% Inhibition Against HSV-2 Viral Replication” value is given as “+ (<50% inhibition at the indicated concentration)”.
Regarding `O=C(Nc1ccc(Oc2ccc(NC(=O)c3ccco3)cc2)cc1)c1ccco1` [Example 16, N,N"-(oxydi-4,1-phenylene)bis(2-furancarboxamide)], in the test with HSV-1 (setting [1]), the inhibition at 5 µM is 0 to 50% and the inhibition at 30 µM lay in the range of 50 to 90%.
Take `O=S(=O)(c1ccc(OCc2ccc(Cl)cc2)cc1)c1ccc(OCc2ccc(Cl)cc2)cc1` [Example 17, bis(4-chlorobenzyloxy)(sulfonyldi-4,1-phenylene)]: in the test on HSV-1 (setting [1]), the inhibition at 5 µM was 0 to 50%. Further, the inhibition at 30 µM with HSV-1 (setting [1]) lay in the range of 50 to 90%. Also, the “% Inhibition Against VZV Viral Replication” value in the test on VZV (2µm) was “++ (> 50% inhibition at the indicated concentration)”. For the same compound, the “% Inhibition Against HSV-2 Viral Replication” value in the test on HSV-2 (1µm) and with HSV-2 (10 µm) was “++ (> 50% inhibition at the indicated concentration)” each time.
Consider `O=S(=O)(c1ccc(OCc2ccc(Br)cc2)cc1)c1ccc(OCc2ccc(Br)cc2)cc1` [Example 18, bis(4-bromobenzyloxy)(sulfonyldi-4,1-phenylene)], for which, in the test with HSV-1 (setting [1]), the inhibition at 5 µM lay in the range of 0 to 50% and the inhibition at 30 µM was 50 to 90%. In addition, the “% Inhibition Against VZV Viral Replication” value with VZV (10µm) is on record as “+++ (>90% inhibition at the indicated concentration)”.
`O=S(=O)(c1ccc(OCc2ccncc2)cc1)c1ccc(OCc2ccncc2)cc1` [Example 19, bis[(4-pyridyl)methoxy](sulfonyldi-4,1-phenylene)]: in the test on HSV-1 (setting [1]), the inhibition at 5 µM was in the range of 0 to 50% and the inhibition at 30 µM fell in the range of 0 to 50%.
On to `O=S(=O)(c1ccc(OCc2ccc(F)cc2)cc1)c1ccc(OCc2ccc(F)cc2)cc1` [Example 20, bis(4-fluorobenzyloxy)(sulfonyldi-4,1-phenylene)], for which, in the test on HSV-1 (setting [1]), the inhibition at 5 µM was in the range of 0 to 50% and the inhibition at 30 µM fell in the range of 50 to 90%.
For `O=[N+]([O-])c1ccc(COc2ccc(S(=O)(=O)c3ccc(O)cc3)cc2)cc1` [Example 21, hydroxy(4-nitrobenzyloxy)(sulfonyldi-4,1-phenylene)], in that order: under 0% and 50 to 90%.
For `O=S(=O)(c1ccc(O)cc1)c1ccc(OCc2ccc(Cl)cc2)cc1` [Example 22, (4-chlorobenzyloxy)hydroxy(sulfonyldi-4,1-phenylene)], in that order: under 0% and 50 to 90%.
Take `O=[N+]([O-])c1ccc(NC(=S)Nc2ccc(Cc3ccc(NC(=S)Nc4ccc([N+](=O)[O-])cc4)cc3)cc2)cc1` [Example 23, N, N"-(methylenedi-4,1-phenylene)bis[N'-(4-nitrophenyl)thiourea]]: the inhibition at 5 µM in the test with HSV-1 (setting [2]) is under 0%. In the test on HSV-1 (setting [3]), the inhibition at 30 µM was over 90%. For the same compound, the “% Inhibition Against VZV Viral Replication” value with VZV (10µm) was “+ (<50% inhibition at the indicated concentration)”.

The inhibition is the share of the control response that was lost under treatment.
